Measurements taken from patent US7618983B2, “Bicyclic triazole α4 integrin inhibitors” (Janssen Pharmaceutica, N.V., priority 2004, dated 2009).
Read-outs that look alike come from different tables or passages of the source.

How the values were obtained:
human α4β7 integrin = molecular target: T1, human α4β7 integrin (Homo sapiens, UniProt P13612+P26010); assay: α4β7-K562 Cell Adhesion Assay (α4β7 Mediated Adhesion/MAdCAM-1); assay type: cell-based; settings: K562 cells expressing human α4β7 adhering to FLAG-hMAdCAM-1, 1 mM Mn2+; read-out: α4β7, Madcam IC50
T1 construct: expressed in transfected cells; host or cells: K562 cells, stably transfected
T1 sequence (P13612 34-1032): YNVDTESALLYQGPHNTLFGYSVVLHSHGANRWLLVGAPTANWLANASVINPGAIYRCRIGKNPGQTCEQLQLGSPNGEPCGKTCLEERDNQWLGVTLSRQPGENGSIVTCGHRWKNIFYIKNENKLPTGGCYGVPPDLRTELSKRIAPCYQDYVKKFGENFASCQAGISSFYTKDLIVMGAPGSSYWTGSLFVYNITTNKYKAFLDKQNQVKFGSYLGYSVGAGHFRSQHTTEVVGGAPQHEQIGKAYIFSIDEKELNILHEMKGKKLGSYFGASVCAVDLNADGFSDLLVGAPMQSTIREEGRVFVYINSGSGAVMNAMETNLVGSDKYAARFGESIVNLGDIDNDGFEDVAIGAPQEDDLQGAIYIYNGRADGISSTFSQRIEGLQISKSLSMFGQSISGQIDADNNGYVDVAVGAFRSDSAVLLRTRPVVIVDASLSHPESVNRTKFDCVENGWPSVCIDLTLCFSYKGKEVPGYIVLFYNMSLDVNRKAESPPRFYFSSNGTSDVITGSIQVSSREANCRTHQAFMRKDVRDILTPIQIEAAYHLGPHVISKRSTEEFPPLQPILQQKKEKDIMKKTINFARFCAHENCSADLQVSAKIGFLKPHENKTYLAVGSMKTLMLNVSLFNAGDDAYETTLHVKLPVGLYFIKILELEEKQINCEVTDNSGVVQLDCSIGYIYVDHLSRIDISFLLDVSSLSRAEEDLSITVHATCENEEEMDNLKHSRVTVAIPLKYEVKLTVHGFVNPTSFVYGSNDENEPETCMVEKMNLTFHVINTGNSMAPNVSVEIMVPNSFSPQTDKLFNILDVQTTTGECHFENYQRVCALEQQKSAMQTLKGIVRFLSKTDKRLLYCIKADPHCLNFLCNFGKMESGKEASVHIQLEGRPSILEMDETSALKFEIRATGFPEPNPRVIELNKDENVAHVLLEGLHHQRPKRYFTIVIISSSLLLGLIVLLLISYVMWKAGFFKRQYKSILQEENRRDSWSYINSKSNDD
T1 sequence (P26010 20-798): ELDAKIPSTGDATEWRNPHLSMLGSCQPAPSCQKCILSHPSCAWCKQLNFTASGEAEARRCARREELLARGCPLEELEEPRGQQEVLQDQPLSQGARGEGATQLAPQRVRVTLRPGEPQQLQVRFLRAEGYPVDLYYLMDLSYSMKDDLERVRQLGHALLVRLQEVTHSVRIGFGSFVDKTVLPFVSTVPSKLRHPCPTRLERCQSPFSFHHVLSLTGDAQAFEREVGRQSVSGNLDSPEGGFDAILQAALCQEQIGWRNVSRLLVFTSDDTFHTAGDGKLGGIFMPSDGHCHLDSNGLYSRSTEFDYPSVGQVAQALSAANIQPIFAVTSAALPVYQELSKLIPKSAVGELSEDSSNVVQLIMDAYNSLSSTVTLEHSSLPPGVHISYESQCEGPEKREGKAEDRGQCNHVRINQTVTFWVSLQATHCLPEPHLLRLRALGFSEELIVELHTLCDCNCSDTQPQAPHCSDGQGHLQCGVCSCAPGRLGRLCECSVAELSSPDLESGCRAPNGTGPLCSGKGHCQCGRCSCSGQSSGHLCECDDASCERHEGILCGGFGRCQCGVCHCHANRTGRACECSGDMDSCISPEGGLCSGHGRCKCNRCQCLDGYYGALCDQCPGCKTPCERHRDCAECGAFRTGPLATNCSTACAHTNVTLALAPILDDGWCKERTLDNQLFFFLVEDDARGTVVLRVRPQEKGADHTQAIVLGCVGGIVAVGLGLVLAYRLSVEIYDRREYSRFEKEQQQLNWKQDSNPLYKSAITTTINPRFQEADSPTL
Protocol: α4β7-K562 Cell Adhesion Assay (α4β7 Mediated Adhesion/MAdCAM-1)
M2 anti-FLAG antibody coated 96-well plates (Sigma) were coated for 1 hour at 4° C. with 2-8 μl/well recombinant FLAG-hMAdCAM-1 contained in 100 μL of Dulbecco's PBS, pH 7.4, with 1% BSA and 1 mM Mn^2+ (PBS-BSA-Mn). Plates were washed once with PBS-BSA-Mn. Buffer was removed and compounds to be tested (50 μL) were added at 2 times concentration. Stably transfected K562 cells expressing human α4β7 integrin, (50 μL at 2×10^6/mL) that had been labeled with 100 μg/mL carboxymethyl fluorescein diacetate succinimidyl ester (CFDA-SE; Molecular Probes) for 15 min at 37° C. were added to each well and allowed to adhere for 1 h at room temperature. Plates were washed 4 times in PBS-BSA-Mn and then cells were lysed for 2 minutes by addition of 100 μL of PBS without Ca, Mg supplemented with 0.1 M NaOH. The plate was read on a 96-well fluorescent plate reader at 485 nm excitation and 530 nm emission.

α4β1 [1] = molecular target: T2, α4β1 (Homo sapiens, UniProt P05556+P13612); assay: Ramos Cell Adhesion Assay (α4β1 Mediated Adhesion/VCAM-1); assay type: cell-based; parameters: Ramos Cell Adhesion Assay (α4β1 Mediated Adhesion/VCAM-1); endogenous in cells; host or cells: Ramos cells; settings: Ramos cells adhering to recombinant hVCAM-1; read-out: α4β1 IC50
T2 sequence (P05556 21-798, one chain of several): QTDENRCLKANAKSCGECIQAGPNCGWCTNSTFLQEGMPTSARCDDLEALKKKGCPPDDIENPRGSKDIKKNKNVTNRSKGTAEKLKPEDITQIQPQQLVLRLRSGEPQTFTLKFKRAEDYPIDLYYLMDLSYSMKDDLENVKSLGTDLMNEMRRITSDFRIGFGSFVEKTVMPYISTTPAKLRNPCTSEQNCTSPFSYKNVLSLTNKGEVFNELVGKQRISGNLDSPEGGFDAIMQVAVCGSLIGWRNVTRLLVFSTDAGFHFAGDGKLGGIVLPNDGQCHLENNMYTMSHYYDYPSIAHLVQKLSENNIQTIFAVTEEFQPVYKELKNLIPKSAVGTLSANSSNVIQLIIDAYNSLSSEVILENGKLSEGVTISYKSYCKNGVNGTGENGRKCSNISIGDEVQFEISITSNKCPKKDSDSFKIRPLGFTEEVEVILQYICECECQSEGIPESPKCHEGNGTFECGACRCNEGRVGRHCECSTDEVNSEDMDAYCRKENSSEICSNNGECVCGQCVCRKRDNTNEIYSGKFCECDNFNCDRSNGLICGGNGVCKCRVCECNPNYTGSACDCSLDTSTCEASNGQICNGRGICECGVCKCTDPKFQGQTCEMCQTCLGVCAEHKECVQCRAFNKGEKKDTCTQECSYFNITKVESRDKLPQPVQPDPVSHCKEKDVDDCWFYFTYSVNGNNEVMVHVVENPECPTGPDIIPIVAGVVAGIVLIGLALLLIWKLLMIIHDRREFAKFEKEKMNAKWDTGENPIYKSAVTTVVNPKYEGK
Protocol: Ramos Cell Adhesion Assay (α4β1 Mediated Adhesion/VCAM-1)
Immulon 96 well plates (Dynex) were coated with 100 μL recombinant hVCAM-1 at 4.0 μg/mL in 0.05 M NaCO3 buffer pH 9.0 overnight at 4° C. (R&D Systems). Plates were washed 3 times in PBS with 1% BSA and blocked for 1 h @ room temperature in this buffer. PBS was removed and compounds to be tested (50 μL) were added at 2× concentration. Ramos cells, (50 μL at 2×10^6/mL) labeled with 5 μM Calcein AM (Molecular Probes) for 1 h at 37° C., were added to each well and allowed to adhere for 1 h at room temperature. Plates were washed 3× in PBS+1% BSA and cells were lysed for 15 minutes in 100 μL of 1 M Tris pH 8.0 with 1% SDS. The plate was read at 485 nm excitation and 530 nm emission.

α4β1 [2] = molecular target: T2, α4β1; settings: cited from earlier work
[3] = tested on: heterotopic heart allograft; settings: hyperlipidemic rabbit; cited from earlier work
[4] = tested on: oxazolone-induced contact hypersensitivity; settings: 6 mg/kg, sc; compared with α4 antibody PS/2; cited from earlier work

## COc1cccc(OC)c1-c1ccc(CC(NC(=O)C2CCc3nnc(Cc4c[nH]c5ccccc45)n32)C(=O)O)cc1 (stereo not drawn) [Cpd 16, 3-(2′,6′-Dimethoxy-biphenyl-4-yl)-2-{[3-(1H-indol-3-ylmethyl)-6,7-dihydro-5H-pyrrolo[2,1-c][1,2,4]triazole-5-carbonyl]-amino}-propionic acid]
Human α4β7 integrin
  IC50: 40 nM
α4β1 [1]
  IC50: > 5000 nM

## COc1cnn(C)c(=O)c1-c1ccc(C[C@H](NC(=O)[C@@H]2CCc3nnc(Cc4ccccc4)n32)C(=O)O)cc1 [Cpd 17, 2-(S)-[(3-Benzyl-6,7-dihydro-5H-pyrrolo[2,1-c][1,2,4]triazole-5-(S)-carbonyl)-amino]-3-[4-(5-methoxy-2-methyl-3-oxo-2,3-dihydro-pyridazin-4-yl)-phenyl]-propionic acid]
Human α4β7 integrin
  IC50: 400 nM
α4β1 [1]
  IC50: 640 nM

## O=C(Nc1ccc(C[C@H](NC(=O)[C@@H]2CCc3n[nH]c(=O)n32)C(=O)O)cc1)c1c(Cl)cccc1Cl [Cpd 18, 3-[4-(2,6-Dichloro-benzoylamino)-phenyl]-2-(S)-[(3-oxo-2,5,6,7-tetrahydro-3H-pyrrolo[2,1-c][1,2,4]triazole-5-(S)-carbonyl)-amino]-propionic acid]
Human α4β7 integrin
  IC50: 90 nM
α4β1 [1]
  IC50: 850 nM

## O=C(Nc1ccc(C[C@H](NC(=O)[C@@H]2CCc3nn(Cc4ccccc4)c(=O)n32)C(=O)O)cc1)c1c(Cl)cccc1Cl [Cpd 19, 2-(S)-[(2-Benzyl-3-oxo-2,5,6,7-tetrahydro-3H-pyrrolo[2,1-c][1,2,4]triazole-5-(S)-carbonyl)-amino]-3-[4-(2,6-dichloro-benzoylamino)-phenyl]-propionic acid]
Human α4β7 integrin
  IC50: 200 nM
α4β1 [1]
  IC50: > 5000 nM

## O=C(Nc1ccc(C[C@H](NC(=O)[C@@H]2CCc3n[nH]c(=O)n32)C(=O)O)cc1)c1c(Cl)cncc1Cl [Cpd 20, 3-{4-[(3,5-Dichloro-pyridine-4-carbonyl)-amino]-phenyl}-2-(S)-[(3-oxo-2,5,6,7-tetrahydro-3H-pyrrolo[2,1-c][1,2,4]triazole-5-(S)-carbonyl)-amino]-propionic acid]
Human α4β7 integrin
  IC50: 50 nM
α4β1 [1]
  IC50: 450 nM

## O=C(Nc1ccc(C[C@H](NC(=O)[C@@H]2CCc3nn(Cc4ccccc4)c(=O)n32)C(=O)O)cc1)c1c(Cl)cncc1Cl [Cpd 21, 2-(S)-[(2-Benzyl-3-oxo-2,5,6,7-tetrahydro-3H -pyrrolo[2,1-c][1,2,4]triazole-5-(S)-carbonyl)-amino]-3-{4-[(3,5-dichloro-pyridine-4-carbonyl)-amino]-phenyl}-propionic acid]
Human α4β7 integrin
  IC50: 780 nM
α4β1 [1]
  IC50: > 5000 nM

## Phenylacetyl-Leu-Asp-Phe-D-Pro-NH2
α4β1 [2]
  IC50: 2000 nM
[3]
  efficacy in heart allograft model: effective
[4]
  efficacy in contact hypersensitivity: efficacy similar to the α4 antibody PS/2
